Laboratory results published in US11214835B1, “Methods and compositions for diagnosis and management of neurodegerative diseases” (UNIVERSITY OF SOUTH FLORIDA, priority 2017, dated 2022).

Tested on: GAS5 transcript
Assay: RNA-EMSA (REMSA) of compound binding to biotin-labeled GAS5 transcript
Details: 0.1 nM biotin-labeled GAS5, 10 nM compound, yeast tRNA, 20 min at room temperature
Description: RNA-EMSA was performed as previously described (see e.g. Apostolatos, H., Apostolatos, A., Vickers, T., Watson, J. E., Song, S., Vale, F., Cooper, D. R., Sanchez-Ramos, J., and Patel, N. A. (2010) Vitamin A metabolite, all-trans-retinoic acid, mediates alternative splicing of protein kinase C deltaVIII (PKCdeltaVIII) isoform via splicing factor SC35. J Biol Chem 285, 25987-25995 and Patel, R. S., Carter, G., Cooper, D. R., Apostolatos, H., and Patel, N. A. (2014) Transformer 2beta homolog (Drosophila) (TRA2B) regulates protein kinase C deltaI (PKCdeltaI) splice variant expression during 3T3L1 preadipocyte cell cycle. J Biol Chem 289, 31662-31672
Briefly, GAS5 was cloned in TOPO vector which has the T7 promoter. […] 0.1 nM of transcribed, biotin-labeled GAS5 was incubated with 10 nM G5-1397 in presence of 10U yeast tRNA and 10 units of RNase inhibitor in a final volume of 10 μl of RNA shift buffer for 20 min at room temperature and detected using Biotin Chromogenic Detection kit (ThermoFisher). […]
As the compound(s) were designed to bind to GAS5 such that it would disrupt binding to UPF1, the compound(s) ability to bind to GAS5 was examined. […] Next, it was evaluated whether NPG567 could stabilize GAS5 in HT22 cells over-expressing UPF1 (from Addgene). […] GAS5 levels were measured using SYBR Green qPCR. […]

SMILES	binding to GAS5 transcript in RNA-EMSA
CC(C)C[C@H]1CN(C(=O)CC2CC2)CC(=O)N[C@@H](CCCCN)CN(C(=O)CCc2ccccc2)CC(=O)N[C@@H](Cc2ccccc2)CN(CC(N)=O)C(=O)CCSCc2ccc(cc2)C(=O)N[C@@H](Cc2ccccc2)CN(C(=O)CC2CC2)CC(=O)N1 [Formula G5-1397]	bound to GAS5 transcript
NCCCC[C@H]1CN(C(=O)CCc2ccccc2)CC(=O)N[C@@H](CCC(=O)O)CN(CC(N)=O)C(=O)CCSCc2ccc(cc2)C(=O)N[C@@H](CCC(=O)O)CN(C(=O)CCC(=O)O)CC(=O)N[C@@H](CCCCN)CN(C(=O)CCCN)CC(=O)N1 [NPG567]	can bind to GAS5 transcript
